Results from article PMC4341838 (Biochemistry, 2015).

Experiment: Circular dichroism in POPC liposomes
Type: physicochemical
Conditions: 1:250 peptide:lipid

Sequence: SSLSLLSLSWLSLSLLSLS [SLscr2]
- Conformation by CD in POPC liposomes, in words: β-sheet-like conformation
